{"source": "patent US9763445B2", "about": "“Safened herbicidal compositions comprising a pyridine carboxylic acid herbicide” (Dow AgroSciences, LLC, priority 2014, dated 2017)", "key": {"corn/maize (ZEAMX)": {"system": "corn/maize (ZEAMX)", "experiment": "Postemergence greenhouse trial, % visual injury on corn/maize", "assay_type": "in vivo, Zea mays", "conditions": "for % visual injury, observed (Ob): ZEAMX", "outline": "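Injury was scored visually (0 = none, 100 = complete kill) 20–22 d after track-sprayer application at 187 L/ha, compared with solvent-sprayed controls. Test plants at the 2–3 true leaf stage; herbicide (g ae/ha) plus cloquintocet-mexyl safener (g ai/ha) in crop-oil-containing spray; expected mixture response by Colby.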"}, "winter wheat (TRZAW)": {"system": "winter wheat (TRZAW)", "experiment": "Postemergence greenhouse trial, % visual injury on winter wheat", "assay_type": "in vivo, Triticum aestivum", "conditions": "for % visual injury, observed (Ob): TRZAW; for % visual injury, Ob: alone", "protocol": "(§1) Seeds of the desired test plant species were planted in Sun Gro MetroMix® 306 planting mixture, which typically has a pH of 6.0 to 6.8 and an organic matter content of about 30 percent, in plastic pots with a surface area of 103.2 square centimeters (cm^2). When required to ensure good germination and healthy plants, a fungicide treatment and/or other chemical or physical treatment was applied. The plants were grown for 7-36 days (d) in a greenhouse with an approximate 14-hour (h) photoperiod which was maintained at about 23° C. during the day and 22° C. during the night. Nutrients and water were added on a regular basis and supplemental lighting was provided with overhead metal halide 1000-Watt lamps as necessary. The plants were employed for testing when they reached the second or third true leaf stage.\n(§2) Weighed amounts of technical material were dissolved in a volume of 97:3 volume per volume (v/v) acetone/dimethyl sulfoxide (DMSO) to stock solutions. […] The concentrated stock solutions were diluted with an aqueous mixture of 1.5% v/v of Agri-dex crop oil concentrate to provide the appropriate application rates. Compound requirements are based upon a 12 milliliter (mL) application volume at a rate of 187 liters per hectare (L/ha). Stocks solutions of the safeners were prepared following the same procedure. Spray solutions of the safeners and experimental compound mixtures were prepared by adding the stock solutions to the appropriate amount of dilution solution to form a 12 mL spray solution in two-way combinations. Formulated compounds were applied to the plant material with an overhead Mandel track sprayer equipped with 8002E nozzles calibrated to deliver 187 L/ha over an application area of 0.503 square meters (m^2) at a spray height of 18 inches (43 centimeters (cm)) above average plant canopy. Control plants were sprayed in the same manner with the solvent blank. All herbicide application (component a) rates are in g ae/ha and all safener (component b) rates are in g ai/ha.\n(§3) The treated plants and control plants were placed in a greenhouse as described above and watered by sub-irrigation to prevent wash-off of the test compounds. After 20-22 d, the condition of the test plants as compared with that of the control plants was determined visually and scored on a scale of 0 to 100 percent where 0 corresponds to no injury and 100 corresponds to complete kill. The condition of the test plants was compared with that of the control plants as determined visually and scored on a scale of 0 to 100 percent, where 0 corresponds to no injury and 100 corresponds to complete kill. Colby's equation was used to determine the herbicidal effects expected from the mixtures.\n(§4) The safener cloquintocet-mexyl was combined with compound 1, compound 2, compound 3, compound 7, compound 8, compound 9, compound 10, compound 11, compound 12, compound 13, compound 14, compound 15, compound 16, compound 17, compound 18, compound 19, and compound 20, and applied to spring wheat (TRZAS), winter wheat (TRZAW), and spring barley (HORVS) and the phytotoxicity of the herbicidal compositions was measured. […]"}, "shepherd's purse (CAPBP)": {"system": "shepherd's purse (CAPBP)", "experiment": "Postemergence greenhouse trial, % visual injury on shepherd's purse", "assay_type": "in vivo, Capsella bursa-pastoris", "conditions": "alone", "protocol": "as §1, §2, §3, §4"}, "cornflower (CENCY) [1]": {"system": "cornflower (CENCY)", "experiment": "Postemergence greenhouse trial, % visual injury on cornflower", "assay_type": "in vivo, Centaurea cyanus or Cyanus segetum", "conditions": "alone", "protocol": "as §1, §2, §3, §4"}, "nutsedge (CYPES)": {"system": "nutsedge (CYPES)", "experiment": "Postemergence greenhouse trial, % visual injury on nutsedge", "assay_type": "in vivo, Cyperus esculentus", "conditions": "for % visual injury, observed (Ob): CYPES", "protocol": "as §1, §2, §3\nThe safener cloquintocet-mexyl was combined with compound 1, compound 2, compound 4, compound 5, and compound 6, and applied to corn/maize (ZEAMX) and spring wheat (TRZAS) and the phytotoxicity of the herbicidal compositions was measured. In addition, the efficacy of the herbicidal composition on velvetleaf (ABUTH, Abutilon theophrasti), pigweed (AMARE, Amaranthus retroflexus), winter rape (BRSNW, Brassica napus), lambsquarters (CHEAL, Chenopodium album), thistle (CIRAR, Cirsium arvense), nutsedge (CYPES, Cyperus esculentus), poinsettia (EPHHL, Euphorbia heterophylla), wild buckwheat (POLCO, Polygonum convolvulus), giant foxtail (SETFA, Setaria faberi), and chickweed (STEME, Stellaria media) was evaluated. […]\nThe safener cloquintocet-acid and a number of agriculturally acceptable esters and salts (-mexyl, -dimethylammonium salt and -triethylammonium salt) were combined in varying ratios with compound 1 and applied to spring wheat (TRZAS), winter wheat (TRZAW), and spring barley (HORVS), and the phytotoxicity of the herbicidal compositions was measured. […]"}, "prickly lettuce (LACSE)": {"system": "prickly lettuce (LACSE)", "experiment": "Postemergence greenhouse trial, % visual injury on prickly lettuce", "assay_type": "in vivo, Lactuca serriola", "conditions": "alone", "protocol": "as §1, §2\nas §3, with “mixtures. […]” for “mixtures.”"}, "cornflower (CENCY) [2]": {"system": "cornflower (CENCY)", "experiment": "Postemergence greenhouse trial, % visual injury on cornflower", "assay_type": "in vivo, Centaurea cyanus or Cyanus segetum", "conditions": "alone", "remark": "listed apart in the source"}}, "data": [{"smiles": "Nc1c(F)c(-c2ccc3cc[nH]c3c2F)nc(C(=O)O)c1Cl", "note": "[compound 1]", "values": [{"measurement": "% visual injury, observed (Ob)", "setting": "corn/maize (ZEAMX); compound 1 alone 20 g/ha", "result": 3, "unit": "%"}, {"measurement": "% visual injury, observed (Ob)", "setting": "corn/maize (ZEAMX); compound 1 alone 40 g/ha", "result": 30, "unit": "%"}, {"measurement": "% visual injury, Ob", "setting": "corn/maize (ZEAMX); alone, 35 g/ha", "result": 40, "unit": "%"}, {"measurement": "% visual injury, observed (Ob)", "setting": "winter wheat (TRZAW); compound 1 alone 20 g/ha", "result": 13, "unit": "%"}, {"measurement": "% visual injury, observed (Ob)", "setting": "winter wheat (TRZAW); compound 1 alone 40 g/ha", "result": 15, "unit": "%"}, {"measurement": "% visual injury, Ob", "setting": "winter wheat (TRZAW); 35 g/ha", "result": 40, "unit": "%"}, {"measurement": "% visual injury, Ob", "setting": "winter wheat (TRZAW); 70 g/ha", "result": 50, "unit": "%"}, {"measurement": "% visual injury, Ob", "setting": "shepherd's purse (CAPBP); 4.375 g/ha", "result": 70, "unit": "%"}, {"measurement": "% visual injury, Ob", "setting": "shepherd's purse (CAPBP); 8.75 g/ha", "result": 100, "unit": "%"}, {"measurement": "% visual injury, Ob", "setting": "shepherd's purse (CAPBP); 17.5 g/ha", "result": 100, "unit": "%"}, {"measurement": "% visual injury, Ob", "setting": "shepherd's purse (CAPBP); 35 g/ha", "result": 100, "unit": "%"}, {"measurement": "% visual injury, Ob", "setting": "shepherd's purse (CAPBP); 70 g/ha", "result": 100, "unit": "%"}, {"measurement": "% visual injury, Ob", "setting": "cornflower (CENCY) [1]; 4.375 g/ha", "result": 100, "unit": "%"}, {"measurement": "% visual injury, Ob", "setting": "cornflower (CENCY) [1]; 8.75 g/ha", "result": 100, "unit": "%"}, {"measurement": "% visual injury, Ob", "setting": "cornflower (CENCY) [1]; 35 g/ha", "result": 100, "unit": "%"}, {"measurement": "% visual injury, observed (Ob)", "setting": "nutsedge (CYPES); compound 1 alone 20 g/ha", "result": 35, "unit": "%"}, {"measurement": "% visual injury, observed (Ob)", "setting": "nutsedge (CYPES); compound 1 alone 40 g/ha", "result": 35, "unit": "%"}, {"measurement": "% visual injury, Ob", "setting": "nutsedge (CYPES); alone, 35 g/ha", "result": 80, "unit": "%"}, {"measurement": "% visual injury, Ob", "setting": "prickly lettuce (LACSE); 4.375 g/ha", "result": 70, "unit": "%"}, {"measurement": "% visual injury, Ob", "setting": "prickly lettuce (LACSE); 8.75 g/ha", "result": 93, "unit": "%"}, {"measurement": "% visual injury, Ob", "setting": "prickly lettuce (LACSE); 17.5 g/ha", "result": 100, "unit": "%"}, {"measurement": "% visual injury, Ob", "setting": "prickly lettuce (LACSE); 35 g/ha", "result": 100, "unit": "%"}, {"measurement": "% visual injury, Ob", "setting": "prickly lettuce (LACSE); 70 g/ha", "result": 100, "unit": "%"}, {"measurement": "% visual injury, Ob", "setting": "cornflower (CENCY) [2]; 17.5 g/ha", "result": 100, "unit": "%"}, {"measurement": "% visual injury, Ob", "setting": "cornflower (CENCY) [2]; 70 g/ha", "result": 100, "unit": "%"}]}]}
